According to the supplement of paper PMC13380429:

How the values were obtained:
U2OS [1] = experiment: relative viability EC50 (midpoint between 100% and the lowest measured viability); higher = less toxic; conditions: 72 h
HepG2 [2] = experiment: as above; conditions: 72 h
Caco-2 [3] = experiment: as above; conditions: 72 h
Calu-3 [4] = experiment: as above; conditions: 72 h
Vero E6 [5] = experiment: as above; conditions: 72 h
A549-ACE2 [6] = experiment: phospholipidosis EC50; higher = less potent phospholipidosis inducer; conditions: 24 h
[7] = tested on: A549-ACE2 infected with SARS-CoV-2; experiment: SARS-CoV-2 infection rate relative to DMSO; higher = more infection; conditions: 24 h
U2OS [8] = experiment: cell viability relative to DMSO; higher = less toxic; conditions: 72 h
HepG2 [9] = experiment: as above; conditions: 72 h
Caco-2 [10] = experiment: as above; conditions: 72 h
Calu-3 [11] = experiment: as above; conditions: 72 h
Vero E6 [12] = experiment: as above; conditions: 72 h
U2OS [13] = experiment: drug sensitivity score (DSS) for viability; higher = more toxic; extreme values may be limits of the assay; conditions: 72 h
HepG2 [14] = experiment: as above; conditions: 72 h
Caco-2 [15] = experiment: as above; conditions: 72 h
Calu-3 [16] = experiment: as above; conditions: 72 h
Vero E6 [17] = experiment: as above; conditions: 72 h
[18] = tested on: A549-ACE2 infected with SARS-CoV-2; experiment: cell count relative to DMSO; higher = less toxic; conditions: 24 h
A549-ACE2 [19] = experiment: drug-induced phospholipidosis relative to tamoxifen; higher = more phospholipidosis
[20] = tested on: A549-ACE2 infected with SARS-CoV-2; experiment: morphology score (similarity to uninfected cells); higher = more like uninfected cells; conditions: 24 h

Compound: CN(C)CCCCC(=O)Nc1ccc(NC(=S)NC(=O)c2ccc(C(C)(C)C)cc2)cc1 [tenovin-6]
- relative viability EC50 (U2OS [1]): 3.24 µM
- relative viability EC50 (HepG2 [2]): 2240 nM
- relative viability EC50 (Caco-2 [3]): 2680 nM
- relative viability EC50 (Calu-3 [4]): 2770 nM
- relative viability EC50 (Vero E6 [5]): 3.37 µM
- phospholipidosis EC50 (A549-ACE2 [6]): 2910 nM
- SARS-CoV-2 infection rate ([7]; 0.1 µM): 91%
- SARS-CoV-2 infection rate ([7]; 0.3 µM): 90%
- SARS-CoV-2 infection rate ([7]; 1 µM): 93%
- SARS-CoV-2 infection rate ([7]; 3 µM): 23%
- cell viability (U2OS [8]; 1 nM): 94%
- cell viability (U2OS [8]; 10 nM): 97.9%
- cell viability (U2OS [8]; 100 nM): 96.3%
- cell viability (U2OS [8]; 1000 nM): 101%
- cell viability (U2OS [8]; 10000 nM): 5.4%
- cell viability (HepG2 [9]; 1 nM): 107%
- cell viability (HepG2 [9]; 10 nM): 101%
- cell viability (HepG2 [9]; 100 nM): 110%
- cell viability (HepG2 [9]; 1000 nM): 88.8%
- cell viability (HepG2 [9]; 10000 nM): 0.8%
- cell viability (Caco-2 [10]; 1 nM): 92.9%
- cell viability (Caco-2 [10]; 10 nM): 100%
- cell viability (Caco-2 [10]; 100 nM): 98.5%
- cell viability (Caco-2 [10]; 1000 nM): 94.6%
- cell viability (Caco-2 [10]; 10000 nM): 12.2%
- cell viability (Calu-3 [11]; 1 nM): 91.1%
- cell viability (Calu-3 [11]; 10 nM): 107%
- cell viability (Calu-3 [11]; 100 nM): 101%
- cell viability (Calu-3 [11]; 1000 nM): 95.1%
- cell viability (Calu-3 [11]; 10000 nM): 4.2%
- cell viability (Vero E6 [12]; 1 nM): 99.4%
- cell viability (Vero E6 [12]; 10 nM): 96.7%
- cell viability (Vero E6 [12]; 100 nM): 104%
- cell viability (Vero E6 [12]; 1000 nM): 103%
- cell viability (Vero E6 [12]; 10000 nM): 27.8%
- drug sensitivity score (U2OS [13]): 5.2
- drug sensitivity score (HepG2 [14]): 7.3
- drug sensitivity score (Caco-2 [15]): 5.7
- drug sensitivity score (Calu-3 [16]): 6
- drug sensitivity score (Vero E6 [17]): 3.8
- cell count ([18]; 0.1 µM): 100%
- cell count ([18]; 0.3 µM): 102%
- cell count ([18]; 1 µM): 98%
- cell count ([18]; 3 µM): 113%
- drug-induced phospholipidosis (A549-ACE2 [19]; 0.3 µM, 24 h): -1.65%
- drug-induced phospholipidosis (A549-ACE2 [19]; 0.3 µM, 48 h): 1.91%
- drug-induced phospholipidosis (A549-ACE2 [19]; 0.3 µM, 72 h): 0.744%
- drug-induced phospholipidosis (A549-ACE2 [19]; 0.833333 µM, 24 h): -1.47%
- drug-induced phospholipidosis (A549-ACE2 [19]; 0.833333 µM, 48 h): 0.33%
- drug-induced phospholipidosis (A549-ACE2 [19]; 0.833333 µM, 72 h): -3.12%
- drug-induced phospholipidosis (A549-ACE2 [19]; 3.33333 µM, 24 h): 61.4%
- drug-induced phospholipidosis (A549-ACE2 [19]; 3.33333 µM, 48 h): 30%
- drug-induced phospholipidosis (A549-ACE2 [19]; 3.33333 µM, 72 h): 26.8%
- drug-induced phospholipidosis (A549-ACE2 [19]; 6.66667 µM, 24 h): 90.4%
- drug-induced phospholipidosis (A549-ACE2 [19]; 10 µM, 24 h): 56.6%
- morphology score ([20]; 0.1 µM): 0.22
- morphology score ([20]; 0.3 µM): 0.15
- morphology score ([20]; 1 µM): -0.08
- morphology score ([20]; 3 µM): 0.8
